The source of these data is US20260115162A1, “COMPOSITION OR ASSOCIATION OF COMPOUNDS PREFERABLY FOR USE IN THE TREATMENT OF NERVOUS DISEASES IN PARTICULAR NEURODEGENERATIVE DISEASES, METHOD FOR THE PREPARATION OF SUCH COMPOSITION OR ASSOCIATION OF COMPOUNDS AND USES THEREOF” (PHARMACEUTICA SAN MARCO S.R.L., priority 2022, published 2026).

For one data set, the system named is PSD-95. The data set is described as follows: PSD-95 in PFC and HIPP of mice treated with Aβ icv, Western blotting (FIG. 12). In kind it is in vivo. As to conditions: after 7 days. The procedure:
The βCP, FE, βBA and HA4 influence on prefrontal and hippocampal synaptic plasticity was evaluated using anti-PSD-95, anti-synaptophysin, anti-CaMKII antibodies.
The Aβ1-42, obtained from Tocris (Bristol, UK), was dissolved in sterile double-distilled pyrogenic-free water, as vehicle, to obtain a final concentration 4 μM [Colaianna M et al. 2010]. Mice were anesthetized with a solution (0.85 in ml/kg, i.p.), containing ketamine (Sigma Aldrich, Milan, Italy, 100 mg/10 ml), xylazine (Sigma Aldrich, Milan, Italy, 100 mg/10 ml) and acepromazine (prequillant, ATI Azienda Terapeutica Veterinaria Srl, 10 mg/10 ml) dissolved in saline solution. […] At the time of dissection, the correct needle track was assessed. […]
The total amount of proteins was measured in homogenates by using Pierce BCA Assay (Thermo Fisher Scientific, Cleveland, OH, USA). […] After HRP-conjugated specific antibody incubation, ECL reagent (Bio-Rad Laboratories Inc., Segrate (MI), Italy) was added to the immune complex and chemiluminescence was detected by ChemiDoc MP system (Bio-Rad Laboratories Inc., Segrate (MI), Italy). Optical densities of the bands were measured using Image J software (http://rsb.info.nih.gov/ij/ accessed on 15 Mar. 2021) and normalized against bands relative to -actin (1:5,000, Abcam, Cambridge, UK).

The conditions of data set [1]: mice, via os, cited from earlier work.
For another data set, the system named is intact mice. Briefly: Behavioral tests on intact animals (open field, freezing). In kind it is in vivo. On the procedure: The trials were performed at the Department of Clinical and Experimental Medicine of the University of Foggia according to the following rationale. • 1. In the present mouse model of beta-amyloid toxicity, using validated tests in mice, we evaluated the behaviors: • a. antidepressant: Tail Suspension Test (TST); Forced Swimming Test (FST); Splash Test (ST) with latency time (sec) and self-care (sec) measurement. • b. antianxiety: Open Field Test with measurement of distance traveled (m), time spent in the wall (sec), time spent in the center (sec), center entries (n); Freezing Test (sec). • c. on memory, learning, coordination of motor skills, fear conditioning: Rotarod Test with measure of Latency to Fall, repeated after training to evaluate motor learning. • 2. We tested the protective effects with the following procedure: • a. individually: βCP, FE, βBA, DHA and HA4; • b. in association with pairs: βCP+HA4, FE+HA4, βBA+HA4, FE+βCP, βBA+FE, βBA+βCP. • c. in association, all four together: βCP+FE+βBA+HA4 • d. versus control (SHAM), • e. using the mouse model of an Aβ-induced depressive phenotype. • 3. These behavioral tests were integrated with serotonin, dopamine, noradrenaline and their metabolites prefrontal cortex and hippocampus measurement. • 4. Furthermore, we evaluated the cortical and hippocampal glutamate (GLU) levels in mice treated with AP and subsequently we tested the ability of βCP, FE, βBA and HA4, to modulate this neurochemical parameter.
βCP, FE e βBA (Merck, Cayman Chemical Company) was dissolved in sunflower oil, this vehicle was chosen in order to maintain a better tasting and higher density of the final solution thus reducing reflux through the digestive tract.
Ten μl of the solution (or vehicle alone) were administered sublingually to mice. Brain βCP, FE e βBA were quantified in a separate subset of mice at 5, 15 and 30 min after their administration.
Open Field Test. Mice were placed in an open field arena and allowed to explore for 30 min [Lama A et al. 2021]. After each trial, the arena floor was cleaned with 70% ethanol to avoid inter-assay bias. The movements of mice were video recorded and analyzed by ANY-maze tracking software (Ugo Basile-Varese, Gemonio, Italy). Locomotion was evaluated through total crossing measurements.

The target in the next data set is T1, catG (cathepsin G) (Homo sapiens, UniProt P08311).
T1 sequence (P08311 21-244): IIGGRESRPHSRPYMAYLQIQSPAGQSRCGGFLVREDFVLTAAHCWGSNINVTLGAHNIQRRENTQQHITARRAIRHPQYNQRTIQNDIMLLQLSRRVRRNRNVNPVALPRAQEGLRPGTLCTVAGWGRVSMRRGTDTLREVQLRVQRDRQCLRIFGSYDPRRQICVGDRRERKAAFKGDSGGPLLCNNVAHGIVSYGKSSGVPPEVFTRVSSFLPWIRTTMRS
To be noted: in vitro; read-out: IC50 catG (cathepsin G) inhibition; cited from earlier work.

One may read the IC50 as the midpoint of a concentration-inhibition curve. For the compound `C[C@H]1[C@H](C)CC[C@]2(C)CC[C@]3(C)C(=CC[C@@H]4[C@@]5(C)CC[C@@H](O)[C@](C)(C(=O)O)[C@@H]5CC[C@]43C)[C@H]12` [βBA, β-boswellic acid], the PSD-95 tissue concentration result in the data set with PSD-95 was “remove Aβ-induced alterations in a progressive manner”. Further, in data set [1] (intestinal mucosa to blood), the “reduction of blood concentration compared to the dose introduced orally” value is recorded as “up to 40 times”. Besides, in data set [1], the “concentration in the brain” value is listed as 1,066 ng/g o ng/ml and the “concentration in the plasma” value is recorded as 725 ng/g o ng/ml. In the data set on intact mice (intact mice, preliminary experiments (unpublished observations)), the “lowest dose showing antidepressant effects” value is given as 5 mg/kg. The “effect in behavioral tests, individually” value with intact mice (mouse, in vivo) is “antidepressant and anxiolytic effect”. Moreover, the IC50 at catG (cathepsin G) is 800 nM.
